Test results: patent EP4732839A1, “USE OF COMPOUND IN TREATMENT OF LIVER DISEASES” (priority 2023, dated 2025)

Assays:
in vivo = test: in vivo
Procedure: C57BL/6 mice, 8 weeks old, female/male, 27, supplier: SPF (Beijing) Biotechnology Co., Ltd.
The body weight of the animals was measured and recorded daily.
All groups were subjected to clinical observations before administration and 1 to 2 h after administration, and additional observations were performed if necessary. Deaths and mortality were checked twice daily. The observations should include, but are not limited to, the following: fur condition, activity, mental status, vomiting, diarrhea, and abnormal secretions around the eyes. All animals should be observed on the day of necropsy, and any abnormal findings should be recorded.
The rectal temperature of all animals was measured and recorded at 0 h before administration and at 2 h, 4 h, 8 h and 24 h after administration.
The experiment was terminated on day 7 after administration. A gross necropsy was performed to examine abdominal and thoracic organs for lesions, and the spleen and liver were collected for weighing.

hepatitis B virus (HBV) = test: Anti-hepatitis B virus activity in HBV-infected primary human hepatocytes; format: cell-based, HBV type B; conditions: HBV-infected PHHs
Procedure: The culture supernatant from one donor (donor 1) was selected to stimulate HBV-infected primary hepatocytes (PHHs), and interferon α and nucleoside analog entecavir (ETV) were selected as positive controls. The experimental procedures were as follows (FIG. 14a), and the detailed procedures were as follows: On day -1, cryopreserved PHHs were thawed and adjusted to a density of 6 × 10^5 cells/mL, and the PHHs were seeded into a 48-well plate at 0.22 mL/well.
On day 0, the PHHs were infected with HBV type B at 600 GE/cells.
On day 1, the culture medium was replaced with a fresh one, and reference compounds ETV and Peg-IFN-α2a (Pegasys-Roche) were added to the cells to treat the cells. The reference compounds ETV and Peg-IFN-α2a for the PHHs were each prepared at one concentration, with three replicate wells.
The PBMC supernatants were each prepared at 4 test concentrations, diluted at a ratio of 1:4, and then added to the cells. Three replicate wells were made for each test condition. The culture medium was replaced with a fresh culture medium containing the PBMC supernatants and the reference compounds on days 5, 7, 9, and 11. On day 13, the cell supernatants were collected and the cell viability was detected using CCK-8.
The content of HBV DNA in the supernatants was determined by qPCR according to the kit instructions. HBsAg and HBeAg levels in the supernatants were determined by ELISA.

[1] = test system: IFN-α, IP-10, IL-6, and TNF-α; test: Liver safety: cytokine ELISA in liver tissue; format: in vivo, C57BL/6J wild-type female mice
Procedure: (§1) C57BL/6J wild-type female mice (6 weeks old) were randomly grouped. After administration at different doses, whole blood and liver tissues of the mice were separately collected at 1 h, 2 h, and 4 h for detection of a plurality of parameters to evaluate the effect of the drugs on the liver.
(§2) Liver tissues and blood were collected at 1 h, 2 h, and 4 h after single dosing.
(§3) The supernatant was collected and stored (-20 °C); • (3) IFN-α, IP-10, IL-6, and TNF-α were detected using an ELISA kit. • (C) Remaining liver tissue-HE staining and pathological evaluation. • (D) 1/2 blood (whole blood)-liver function parameter detection: AST (aspartate aminotransferase), ALT (alanine aminotransferase/glutamate pyruvate transaminase), ALP (alkaline phosphatase), ALB (albumin), and GGT (γ-glutamyl transferase). • (E) 1/2 blood-serum preparation-reserve for ELISA.

[2] = test system: ISG15, ISG56, Mx1, and Oaslb; test: Liver safety: qPCR of interferon-related genes in liver tissue; format: in vivo, C57BL/6J wild-type female mice
Procedure: as §1, §2, §3

[3] = C57BL/6 mice, single intragastric administration

## COCCNc1nc(N)nc2ccc(Cc3ccc(CN4CCOCC4)cc3)nc12 [Compound II]
In vivo; 20 mg/kg, group 6, male animal No. 35, day 2
  Cage-side observation: white secretions around the eyes
In vivo; 2 h after treatment, significant difference vs vehicle group, returned to normal 4 h, 8 h and 24 h
  rectal temperature: decreased
In vivo; [3]
  Adverse reactions at maximum tolerated dose/probability: White secretion around the eyes (1/6)
  Weight loss at maximum tolerated dose: whether recovered: Yes
  Weight loss rate at maximum tolerated dose: 14%
  With or without mouse death: No
In vivo; male and female animals, 10-40 mg/kg single administration, began to recover from day 3 to day 7
  body weight: decreased after the single administration
In vivo; mouse, in vivo, po
  MTD at 168 h: 40 mg/kg
Hepatitis B virus (HBV); PBMC supernatant (donor 1)
  activity for inhibiting HBV DNA compared with Peg-IFN-α2a (100 IU/mL): comparable
  activity for reducing hepatitis B surface antigen compared with Peg-IFN-α2a (100 IU/mL): slightly stronger
  anti-HBV activity compared with GS-9688: significantly stronger
Hepatitis B virus (HBV); agonist-treated PBMC supernatant (donor 1) or reference compound, supernatant ELISA day 13
  levels of surface antigens HBeAg and HBsAg: significantly reduced
Hepatitis B virus (HBV); agonist-treated PBMC supernatant (donor 1) or reference compound, supernatant qPCR day 13
  level of HBV DNA: significantly reduced
[1]; 3/10/20 mpk groups i.g. single dose, 1 h, 2 h, 4 h
  expression levels of IL-6, TNF-α, IFN-α, and IP-10: all peaked at 2 h, and decreased at 4 h
[1]; i.g. single dose
  IP-10 (CXCL-10) secretion: significantly induced
[2]; 3/10/20 mpk i.g. single dose, 1 h to 4 h
  relative expression levels of ISG15, ISG56, Mx1, and oas1b: increased over time, and peaked at 4 h
[2]; dose of 3 mpk (pharmacodynamic dose)
  mRNA expression level of interferon-related genes: significantly induced an increase
